This is an account of results in patent EP0511152A2, “Quinoxaline compounds, their preparation and use” (NOVO NORDISK A/S, priority 1991, dated 1992).

The test system of assay [1] is quisqualic acid stimulated spreading depression in chicken retina. In words: Spreading depression (Test 2). It is filed as cell-based. To be noted: Gallus gallus; concentration producing 50% maximal inhibition of quisqualic acid stimulated spreading depression; chick retina, quisqualate 1 µg/ml, 26°C. The method, then: (§1) The pharmacological properties of the compounds of the present invention can be illustrated by determining their capability for displacing radioactively labelled 2-amino3-hydroxy-5-methyl-4-isoxazolepropionic acid (AMPA) from the AMPA type receptors.
The antagonism is measured by determining the IC₅₀ value which represents the concentration which produces a 50% maximal inhibition of quisqualic acid stimulated spreading depression in chicken retina.
Spreading depression (Test 2)
Chicks (3-10 days old) were decapitated, the eyes enucleated and sectioned along the equatorial plane. After removal of the anterior chamber and the vitreous body, the posterior chamber of each eye was placed in a small petri dish containing a physiological saline solution (P.S.S.) of the following composition (mM) NaCl (100), KCl (6.0), CaCl₂ (1.0), MgS0₄ (1.0), NaHCO₃ (30), NaH₂PO₄ (1.0), glucose (20).
The solution was saturated with 100% O₂ and maintained at 26°C.
The eyes are initially incubated in normal P.S.S. for 15-30 min. and then transferred to P.S.S. containing KCl (20 mM), NMDLA (30 µg/ml), quisqualate (1 µg/ml), kainate (1 µg/ml), or glycin (200 µg/ml). In these "stimulating solutions" S.D.s start spontaneously usually from the edge of the retina, and can be easily observed by eye. The time taken for an S.D. to start in each eye is measured.
After a further 15 minutes of incubation in normal P.S.S. the eyes are transferred to normal P.S.S. containing the test compound and incubated for 15 minutes. Thereafter the eyes are transferred to a "stimulating solution" containing the same concentration of the test compound. The time taken for an S.D. to start in each eye is again measured. The eyes are then placed back in normal P.S.S. and after 15 minutes the time taken for S.D. to start is again measured, in order to assess the degree of recovery from any drug effects.
An increase in the time taken for S.D. to start of 30 seconds more than the control time is considered 100% inhibition of S.D. The drug effects therefore are expressed as the percentage maximum response obtained for a given dose. The test value can be quoted therefore as the concentration (µg/ml) of test substance which produces a 50% maximal inhibition (IC₅₀).

The next assay addresses AMPA type receptors. In words: ³H-AMPA binding (Test 1). The following applies: displacement of 50% of specific binding of ³H-AMPA (5 nM); rat cerebral cortical membrane homogenate, 0°C, 30 min. How it is done:
as §1
The displacement activity of the compounds may be shown by determining the IC₅₀ value which represents the concentration (µg/ml) which causes a displacement of 50% of the specific binding of ³H-AMPA.
500 µl of thawed rat cerebral cortical membrane homogenate in Tris-HCl (30 mM), CaCl₂ (2.5 mM) and KSCN (1OO mM) pH 7.1 were incubated at 0°C for 30 min. with 25 µl ³H-AMPA (5 nM final concentration) and the test compound and buffer. Nonspecific binding was determined by incubation with L-glutamic acid (600 µM final concentration). The binding reaction was terminated by adding 5 ml of ice-cold buffer followed by filtration through Whatman GF/C glass fibre filters and 2x5 ml wash with ice-cold buffer. Bound radioactivity was measured by scintillation counting. IC₅₀ was determined by Hill analysis of at least four concentrations of test compound.

≈ marks a conversion by molar mass, not a printed value.

The term IC50 denotes the concentration at which inhibition is half-maximal. As for `O=c1[nH]c2cc([N+](=O)[O-])c3c(C(F)(F)F)cccc3c2[nH]c1=O` [Example 8, 6-Nitro-7-trifluoromethylbenzo[f]quinoxaline-2,3-(1H,4H)-dione], in assay [1], the IC50 was determined as 1.3 µg/mL (≈ 4 µM). Also, at AMPA type receptors, the “Test 1 IC50” value turned out to be 0.55 µg/mL.
The matching figures for `N#Cc1cc2[nH]c(=O)c(=O)[nH]c2c2ccc(S(N)(=O)=O)cc12` [Example 11, 6-Cyano-8-sulfamoylbenzo[f]quinoxaline-2,3(1H,4H)-dione]: 0.54 µg/mL (≈ 1.71 µM) and 0.17 µg/mL.
For `NC(=O)c1ccc2c(c1)c([N+](=O)[O-])cc1[nH]c(=O)c(=O)[nH]c12` [Example 14, 8-Carbamoyl-6-nitrobenzo[f]quinoxaline-2,3(1H,4H)-dione] the same measures were 0.41 µg/mL (≈ 1.37 µM) and 0.07 µg/mL.
The matching figures for `NC(=O)CNS(=O)(=O)c1ccc2c(c1)c([N+](=O)[O-])cc1[nH]c(=O)c(=O)[nH]c12` [Example 21, 8-Carbamoylmethylsulfamoyl-6-nitrobenzo[f]quinoxaline-2,3(1H,4H)-dione]: 1 µg/mL (≈ 2.54 µM) and 0.16 µg/mL.
